Laboratory results reported in patent US20150210741A1, “JAGARICIN DERIVATIVES AND THEIR USE AS FUNGICIDE OR ANTITUMOR AGENT” (Leibniz-Institut Für Naturstoff-Forschung Und …, priority 2012, published 2015).
Values after ≈ are worked out from the molar mass of the structure shown. Starred links: 1 amine or outer side, 2 acyl side, 3 side chain; linkers in the order of their positions; H or OH if unused. Positions of bridges follow the written chain, without caps; N, C: chain ends. Non-standard residues stand in square brackets, D forms with d. Residues, ends and D or L forms follow the SMILES beside them. *: point of attachment. Tetradecanoyl(3R-OH) = CCCCCCCCCCC[C@@H](O)CC(=O)*; X1 = C/C=C(/N[*:1])C(=O)[*:2]; Dhb = C/C=C(\N)C(=O)O

Tests used:
A. fumigatus = assay: Agar diffusion antifungal bioactivity test; type: cell-based; details: Aspergillus fumigatus
Procedure: (§1) Janthinobacterium agaricidamnosum (DSM 9628) was retrieved from the German collection of microorganisms (DSM). The bacteria were cultured in nutrient media (605 DSM without NaCl; 1 g/L beef extract, 2 g/L yeast extract, 5 g/L peptone, 15 g/L agar). Plates and liquid cultures (shaken at 150 rpm in baffled flasks) were grown at 22° C. and 28° C., respectively. During screening plates and liquid cultures of modified nutrient agar (additional 4 g/L chitin, 100 g/L mushroom cubes), M9 (6 g/L Na2HPO4, 3 g/L KH2PO4, 0.5 g/L NaCl, 2 g/L NH4Cl, 4 g/L glucose, […], 2 mM MgSO4, 15 g/L agar), MS (20 g/L mannite, 20 g/L soy flour, 20 g/L agar) and modified VK (5 g/L glycine, 10 g/L yeast extract, 10 g/L glucose, 10 g/L corn steep, 10 g/L CaCO3, 15 g/L agar pH 6.7-7.0) media were used. For the production of jagaricin J. agaricidamnosum was grown in modified VK medium. The selection of positive J. agaricidamnosum mutants was carried out on nutrition agar supplemented with 50 μg/mL kanamycin. For the construction of pKG01, Escherichia coli Top 10 cells and E. coli ER2925 cells were used. E. coli was cultured in LB medium (10 g/L tryptone, 5 g/L yeast extract, 5 g/L NaCl, 1 g/L glucose) supplemented with 50 μg/mL kanamycin. Candida albicans, Aspergillus fumigatus and A. terreus were used for the bioactivity tests and they were cultivated on malt agar (C. albicans; 40 g/L malt extract, 4 g/L yeast extract, 15 g/L agar, pH 5.7-6.0) and potato glucose agar (A. fumigatus and A. terreus; 4 g/L potato starch infusion, 20 g/L dextrose, 15 g/L agar) plates, respectively.
(§2) 50 μL of different concentrated jagaricin solutions were each pipetted into a pierced hole (9 mm diameter) within an agar plate that was inoculated with the test strains C. albicans, A. fumigatus and A. terreus, respectively. After incubation at 24° C. over night the inhibition zone was measured. The antiproliferative and cytotoxic assay were performed as previously described (Abdou, R. et al., Phytochemistry, 2009. 71(1): p. 110-6).

A. terreus = assay: Agar diffusion antifungal bioactivity test; type: cell-based; details: Aspergillus terreus
Procedure: as §1, §2

C. albicans = assay: Agar diffusion antifungal bioactivity test; type: cell-based; details: Candida albicans
Procedure: as §1, §2

[1] = tested on: human chronic myeloid leukemia cells K-562; assay: Antiproliferative assay; type: cell-based; details: K562, K-562, antiproliferative
Procedure: as §2

[2] = tested on: human umbilical vein endothelial cells HUVEC; assay: Antiproliferative assay; type: cell-based
Procedure: as §2

Cytotoxic assay = type: cell-based; details: human, HeLa cells (human cervix carcinoma)
Procedure: as §2

bacteria = assay: Antibacterial activity (data not shown); type: cell-based
mushroom tissue = assay: Application of purified jagaricin on mushroom tissue; set-up: species or system Agaricus bisporus; details: purified jagaricin applied to mushroom tissue

## C/C=C1\NC(=O)[C@@H](Cc2ccc(O)cc2)NC(=O)[C@@H]([C@H](C)O)NC(=O)[C@@H](NC(=O)/C(=C\C)NC(=O)C[C@H](O)CCCCCCCCCCC)[C@@H](C)OC(=O)[C@H](Cc2c[nH]cn2)NC(=O)[C@H]([C@@H](C)O)NC(=O)CNC(=O)[C@@H](CCC(N)=O)NC1=O [jagaricin] ({Tetradecanoyl(3R-OH)}-[X1]T[dT][dY][Dhb][dQ]GTH; ester 2-C)
A. fumigatus
  MIC: 0.41 µM (≈ 0.484 µg/mL)
A. terreus
  MIC: 0.28 µM (≈ 0.331 µg/mL)
C. albicans
  MIC: 0.42 µM (≈ 0.496 µg/mL)
[1]
  GI50: 1000 nM
[2]
  GI50: 1000 nM
Cytotoxic assay
  CC50: 3800 nM
bacteria
  antibacterial activity: little or no antibacterial activity
Mushroom tissue
  lesion on mushroom tissue: caused a superficial lesion on mushroom tissue
